Results: patent publication US20040198831A1, “Remedial agent for arthrosis deformans” (priority 2001, published 2004)

What was measured:
[1] = system: model of OA in rabbits; details: reported in Inflamm Res 44, Suppl 2, S117-118 (1995); cited from earlier work
[2] = system: rat; assay: toxicity, single oral administration to rat; format: in vivo; details: oral administration to rat once
Description: It was considered that the toxicities of the compounds represented by the formula (I) could be very low and safe to use as a medicine. For example, the lowest lethal dose in oral administration of compound (II) to rat once was 2000 mg/kg or more.

[3] = system: partial meniscectomy model in rabbits; assay: partial meniscectomy model of osteoarthritis in rabbits (erosion area); format: in vivo, rabbit; details: female rabbits, 1, 3 and 10 mg/kg per day, administered twice a day, 7 days after operation, FIG. 1
Description: Efficiencies of the compounds in the present invention on osteoarthrosis were proven, for example, by an experiment of a partial meniscectomy model in rabbits.
Female rabbits (Kbs: NZW (Healthy)) were preliminarily bred for a week and subjected to ablative operation of meniscus by the following method.
Each animal was anesthetized by a subcutaneous injection of 2% parenteral celactal (0.05 ml/kg) to the poll and an intravenous injection of nembutal (20 mg/kg) to the marginal auricle. Their right knees were disinfected with Iodine tincture that dilutes five times with distilled water. If necessary, local anesthesia was performed by dropping 2% of parenteral xylocaine to incised part.
Then, skins and articular capsules outside knees of right hind legs were incised at right angle to patellar ligament, fibular collateral ligaments and sesamoid ligaments were transected. In that case, parenteral solution of bosmin was dropped for the arrest of hemorrhage. […]
After anesthesia by an intravenous injection of parenteral nembutal (40 mg/kg) to marginal auricle, the animals were made to die by venesection and gathered their right knees of joint part. […] After collecting all samples and masking them, their erosion areas were measured with a stereoscopic microscope. […]

| SMILES | effect on a model of OA in rabbits [1] | lowest lethal dose [2] | inhibitory effect on erosion area of thigh bone [3] |
| --- | --- | --- | --- |
| COc1ccc(S(=O)(=O)N(Cc2cccnc2)[C@@H](C(=O)NO)C(C)C)cc1.Cl [CGS-27023A, 2(R)-[N-(4-methoxyphenylsulfonyl)-N-(3-pyridylmethyl)amino]-3-methylbutanohydroxamic acid hydrochloride] | could be effect | – | – |
| C[C@@H](C[C@@H](CO)NC(=O)c1ccc(Oc2ccccc2)cc1)C(=O)NO [compound (II), N-hydroxy-5-hydroxy-2(S)-methyl-4(S)-(4-phenoxybenzoyl)aminopentanamide] | – | ≥ 2000 mg/kg | inhibitory effect |
